Tests used:
Histamine H3 receptor = Histamine H3 receptor (Homo sapiens, UniProt Q9Y5N1); assay: Inhibition of human histamine H3 receptor expressed in CHO-K1 cells at 10 uM relative to control; type: cell-based
[1] = target: Mu-type opioid receptor (Homo sapiens) (UniProt P35372); assay: Inhibition of human Mu-type opioid receptor at 10 uM relative to control
[2] = target: Sodium-dependent dopamine transporter (Homo sapiens) (UniProt Q01959); assay: Inhibition of human dopamine transporter expressed in CHO-K1 cells at 10 uM relative to control; type: cell-based
[3] = target: 5-hydroxytryptamine receptor 2A (Homo sapiens, UniProt P28223); assay: Inhibition of human 5HT-2A receptor expressed in CHO-K1 cells at 10 uM relative to control; type: cell-based
[4] = target: Alpha-2A adrenergic receptor (Homo sapiens) (UniProt P08913); assay: Inhibition of human adrenergic receptor alpha2A expressed in CHO-K1 cells at 10 uM relative to control; type: cell-based
D(3) dopamine receptor = D(3) dopamine receptor (Homo sapiens, UniProt P35462); assay: Inhibition of human dopamine D3 receptor expressed in CHO-K1 cells at 10 uM relative to control; type: cell-based
[5] = target: Gamma-aminobutyric acid type B receptor subunit 1 (Homo sapiens) (UniProt Q9UBS5); assay: Inhibition of human GABA-B1 at 10 uM relative to control
Homo sapiens [6] = species: Homo sapiens; assay: Inhibition of GABA receptor chloride/TBOB site (unknown origin) at 10 uM relative to control
[7] = target: Muscarinic acetylcholine receptor M5 (Homo sapiens) (UniProt P08912); assay: Inhibition of human muscarinic M5 receptor expressed in CHO-K1 cells at 10 uM relative to control; type: cell-based
Homo sapiens [8] = species: Homo sapiens; assay: Inhibition of human delta 2-type opioid receptor at 10 uM relative to control
[9] = target: Adenosine receptor A2a (Homo sapiens) (UniProt P29274); assay: Inhibition of human adenosine receptor A2A expressed in HEK293 cells at 10 uM relative to control; type: cell-based
[10] = target: cGMP-specific 3',5'-cyclic phosphodiesterase (Homo sapiens) (UniProt O76074); assay: Inhibition of human PDE5A1 at 10 uM relative to control
[11] = target: B2 bradykinin receptor (Homo sapiens) (UniProt P30411); assay: Inhibition of BKR2 (unknown origin) at 10 uM relative to control
[12] = target: D(2) dopamine receptor (Homo sapiens) (UniProt P14416); assay: Inhibition of human dopamine D2S receptor expressed in CHO-K1 cells at 10 uM relative to control; type: cell-based
[13] = target: Alpha-2C adrenergic receptor (Homo sapiens) (UniProt P18825); assay: Inhibition of human adrenergic receptor alpha2C expressed in CHO-K1 cells at 10 uM relative to control; type: cell-based
[14] = target: Endothelin-1 receptor (Homo sapiens) (UniProt P25101); assay: Inhibition of human ET-A at 10 uM relative to control
[15] = target: 5-hydroxytryptamine receptor 3A (Homo sapiens) (UniProt P46098); assay: Inhibition of 5HT-3 (unknown origin) receptor at 10 uM relative to control
Homo sapiens [16] = species: Homo sapiens; assay: Inhibition of nAChR (unknown origin) at 10 uM relative to control
[17] = target: Neuropeptide Y receptor type 2 (Homo sapiens) (UniProt P49146); assay: Inhibition of human NPY2R expressed in CHO-K1 cells at 10 uM relative to control; type: cell-based
[18] = target: Alpha-1B adrenergic receptor (Homo sapiens) (UniProt P35368); assay: Inhibition of human adrenergic receptor alpha1B expressed in CHO-K1 cells at 10 uM relative to control; type: cell-based
[19] = target: Muscarinic acetylcholine receptor M1 (Homo sapiens) (UniProt P11229); assay: Inhibition of human muscarinic M1 receptor expressed in CHO-K1 cells at 10 uM relative to control; type: cell-based
[20] = target: Leukotriene B4 receptor 1 (Homo sapiens) (UniProt Q15722); assay: Inhibition of human BLT expressed in CHO-K1 cells at 10 uM relative to control; type: cell-based
[21] = Induction of contextual fear extinction in fear-conditioned C57/BlJ6 mouse assessed as decrease in initial freezing behavior at 5 mg/kg administered for 1 week by contextual fear conditioning assay; type: functional; parameters: scale not given: the % may be the effect or the level left; settings: time 1 weeks
[22] = target: D(1A) dopamine receptor (Homo sapiens) (UniProt P21728); assay: Inhibition of human dopamine D1 receptor at 10 uM relative to control
hERG (KCNH2) = hERG (KCNH2) (Homo sapiens, UniProt Q12809); assay: Inhibition of human ERG in HEK293 cells at 10 uM relative to control; type: cell-based; settings: HEK293 cells that express hERG
[23] = Half life in human; type: ADME
Homo sapiens [24] = species: Homo sapiens; assay: Inhibition of GABA-A agonist site (unknown origin) at 10 uM relative to control

D(3) dopamine receptor, sequence (P35462 whole entry): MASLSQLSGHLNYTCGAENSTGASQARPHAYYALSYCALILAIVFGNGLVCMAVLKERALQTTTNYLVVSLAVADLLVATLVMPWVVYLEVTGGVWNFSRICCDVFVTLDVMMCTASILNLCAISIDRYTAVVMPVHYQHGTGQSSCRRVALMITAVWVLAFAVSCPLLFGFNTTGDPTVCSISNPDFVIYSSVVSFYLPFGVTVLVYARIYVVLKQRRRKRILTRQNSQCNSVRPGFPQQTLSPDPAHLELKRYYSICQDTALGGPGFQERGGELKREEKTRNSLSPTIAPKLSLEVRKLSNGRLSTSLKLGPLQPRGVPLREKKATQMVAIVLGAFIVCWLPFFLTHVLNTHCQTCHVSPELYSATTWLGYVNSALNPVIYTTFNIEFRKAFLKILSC
Sodium-dependent dopamine transporter (Homo sapiens), sequence (Q01959 whole entry): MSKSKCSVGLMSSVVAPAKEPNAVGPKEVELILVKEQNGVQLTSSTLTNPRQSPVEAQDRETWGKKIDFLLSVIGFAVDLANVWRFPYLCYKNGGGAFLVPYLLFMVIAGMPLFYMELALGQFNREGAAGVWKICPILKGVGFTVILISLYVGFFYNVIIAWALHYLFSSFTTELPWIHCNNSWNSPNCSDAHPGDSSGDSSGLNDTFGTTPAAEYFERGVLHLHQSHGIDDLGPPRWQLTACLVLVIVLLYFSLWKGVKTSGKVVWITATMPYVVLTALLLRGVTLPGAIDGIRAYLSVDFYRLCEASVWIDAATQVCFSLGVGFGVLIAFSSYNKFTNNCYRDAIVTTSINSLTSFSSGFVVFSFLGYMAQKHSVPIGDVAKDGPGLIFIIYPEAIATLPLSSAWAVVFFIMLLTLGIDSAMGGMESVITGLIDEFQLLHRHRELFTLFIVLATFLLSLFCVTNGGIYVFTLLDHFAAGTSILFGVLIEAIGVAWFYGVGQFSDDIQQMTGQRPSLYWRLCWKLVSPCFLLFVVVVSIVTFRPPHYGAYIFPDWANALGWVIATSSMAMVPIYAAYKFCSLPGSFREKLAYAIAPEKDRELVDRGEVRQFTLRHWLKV
Alpha-2C adrenergic receptor (Homo sapiens), sequence (P18825 whole entry): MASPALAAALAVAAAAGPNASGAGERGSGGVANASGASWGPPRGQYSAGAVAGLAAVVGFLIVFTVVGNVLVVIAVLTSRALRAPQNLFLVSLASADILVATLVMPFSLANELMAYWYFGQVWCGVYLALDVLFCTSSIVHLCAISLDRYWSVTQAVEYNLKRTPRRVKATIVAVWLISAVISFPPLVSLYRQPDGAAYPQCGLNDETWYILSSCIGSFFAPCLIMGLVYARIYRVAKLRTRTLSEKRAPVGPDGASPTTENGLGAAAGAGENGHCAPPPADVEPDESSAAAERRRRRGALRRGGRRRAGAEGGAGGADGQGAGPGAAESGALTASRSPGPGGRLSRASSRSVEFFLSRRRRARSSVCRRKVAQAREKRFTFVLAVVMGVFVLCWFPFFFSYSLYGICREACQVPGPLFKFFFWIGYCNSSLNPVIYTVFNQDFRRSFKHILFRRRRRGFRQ
D(2) dopamine receptor (Homo sapiens), sequence (P14416 whole entry): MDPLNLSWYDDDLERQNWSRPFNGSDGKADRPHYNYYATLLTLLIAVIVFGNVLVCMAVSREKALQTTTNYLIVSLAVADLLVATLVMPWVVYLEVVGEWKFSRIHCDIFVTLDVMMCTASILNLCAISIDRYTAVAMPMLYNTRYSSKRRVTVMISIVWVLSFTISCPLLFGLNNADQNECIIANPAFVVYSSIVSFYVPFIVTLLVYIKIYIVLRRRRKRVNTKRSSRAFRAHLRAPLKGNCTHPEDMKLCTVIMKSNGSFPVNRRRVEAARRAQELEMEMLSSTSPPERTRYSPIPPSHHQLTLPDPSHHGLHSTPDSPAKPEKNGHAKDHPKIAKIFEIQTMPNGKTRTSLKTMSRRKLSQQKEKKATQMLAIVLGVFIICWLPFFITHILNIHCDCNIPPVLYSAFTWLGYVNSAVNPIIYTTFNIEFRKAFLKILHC
B2 bradykinin receptor (Homo sapiens), sequence (P30411 whole entry): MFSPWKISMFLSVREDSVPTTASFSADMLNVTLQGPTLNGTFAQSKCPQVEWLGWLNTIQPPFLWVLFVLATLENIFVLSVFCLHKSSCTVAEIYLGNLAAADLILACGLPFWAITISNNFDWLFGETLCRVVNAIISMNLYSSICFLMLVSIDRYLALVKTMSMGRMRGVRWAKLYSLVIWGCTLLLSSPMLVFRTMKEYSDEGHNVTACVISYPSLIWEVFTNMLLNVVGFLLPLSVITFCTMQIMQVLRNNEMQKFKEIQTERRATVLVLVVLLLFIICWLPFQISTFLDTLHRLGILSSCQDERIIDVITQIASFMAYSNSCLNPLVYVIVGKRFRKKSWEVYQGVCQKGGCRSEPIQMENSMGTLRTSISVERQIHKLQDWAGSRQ
5-hydroxytryptamine receptor 2A, sequence (P28223 whole entry): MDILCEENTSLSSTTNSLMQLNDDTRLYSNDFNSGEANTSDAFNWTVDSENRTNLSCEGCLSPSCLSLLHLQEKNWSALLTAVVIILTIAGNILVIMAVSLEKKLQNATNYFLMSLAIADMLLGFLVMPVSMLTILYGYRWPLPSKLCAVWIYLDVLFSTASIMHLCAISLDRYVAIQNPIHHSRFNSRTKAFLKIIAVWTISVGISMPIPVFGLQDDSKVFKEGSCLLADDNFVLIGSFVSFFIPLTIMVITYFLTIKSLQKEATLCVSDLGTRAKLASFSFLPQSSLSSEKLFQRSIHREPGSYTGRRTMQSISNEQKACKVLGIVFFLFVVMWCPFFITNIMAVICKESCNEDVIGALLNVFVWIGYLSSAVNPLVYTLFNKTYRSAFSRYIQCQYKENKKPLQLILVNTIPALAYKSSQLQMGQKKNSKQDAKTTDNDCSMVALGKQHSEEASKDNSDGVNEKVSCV
Muscarinic acetylcholine receptor M1 (Homo sapiens), sequence (P11229 whole entry): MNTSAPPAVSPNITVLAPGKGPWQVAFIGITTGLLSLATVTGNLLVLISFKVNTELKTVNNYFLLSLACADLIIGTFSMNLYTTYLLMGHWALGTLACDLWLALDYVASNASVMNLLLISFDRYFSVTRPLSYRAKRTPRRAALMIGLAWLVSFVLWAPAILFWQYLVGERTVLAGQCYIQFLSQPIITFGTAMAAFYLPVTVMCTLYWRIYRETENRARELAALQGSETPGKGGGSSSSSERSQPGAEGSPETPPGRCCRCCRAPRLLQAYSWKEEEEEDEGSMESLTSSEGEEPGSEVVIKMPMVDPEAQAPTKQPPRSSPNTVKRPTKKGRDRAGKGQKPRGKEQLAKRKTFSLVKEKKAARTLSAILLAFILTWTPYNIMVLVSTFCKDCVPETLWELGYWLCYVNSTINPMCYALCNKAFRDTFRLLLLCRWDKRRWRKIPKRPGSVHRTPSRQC
Gamma-aminobutyric acid type B receptor subunit 1 (Homo sapiens), sequence (Q9UBS5 whole entry): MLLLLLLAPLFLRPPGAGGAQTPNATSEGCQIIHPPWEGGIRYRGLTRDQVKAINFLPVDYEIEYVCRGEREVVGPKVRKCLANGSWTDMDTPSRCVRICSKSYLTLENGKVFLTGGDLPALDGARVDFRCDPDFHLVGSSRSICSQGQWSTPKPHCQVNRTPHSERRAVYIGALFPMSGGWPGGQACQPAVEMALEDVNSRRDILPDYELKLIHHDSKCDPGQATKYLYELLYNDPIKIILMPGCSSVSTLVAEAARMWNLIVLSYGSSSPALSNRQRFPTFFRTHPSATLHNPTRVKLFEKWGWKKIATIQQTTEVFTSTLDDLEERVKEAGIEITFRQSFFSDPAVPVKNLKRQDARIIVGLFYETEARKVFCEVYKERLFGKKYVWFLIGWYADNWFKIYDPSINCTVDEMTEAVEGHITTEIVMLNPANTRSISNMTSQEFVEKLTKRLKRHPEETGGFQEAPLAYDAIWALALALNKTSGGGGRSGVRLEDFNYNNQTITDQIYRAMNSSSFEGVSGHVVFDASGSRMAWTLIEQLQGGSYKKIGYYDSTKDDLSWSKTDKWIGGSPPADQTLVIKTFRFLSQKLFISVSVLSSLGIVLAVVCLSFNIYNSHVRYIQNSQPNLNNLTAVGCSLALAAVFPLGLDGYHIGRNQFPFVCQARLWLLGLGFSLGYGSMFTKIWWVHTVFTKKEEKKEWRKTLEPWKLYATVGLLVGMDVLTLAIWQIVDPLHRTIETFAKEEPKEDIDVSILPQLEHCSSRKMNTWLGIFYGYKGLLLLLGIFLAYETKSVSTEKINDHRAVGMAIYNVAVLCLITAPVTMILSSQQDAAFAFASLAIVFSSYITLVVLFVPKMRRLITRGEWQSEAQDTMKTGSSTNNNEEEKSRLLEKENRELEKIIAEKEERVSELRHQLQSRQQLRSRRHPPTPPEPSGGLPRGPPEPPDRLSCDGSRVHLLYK
Mu-type opioid receptor (Homo sapiens), sequence (P35372 whole entry): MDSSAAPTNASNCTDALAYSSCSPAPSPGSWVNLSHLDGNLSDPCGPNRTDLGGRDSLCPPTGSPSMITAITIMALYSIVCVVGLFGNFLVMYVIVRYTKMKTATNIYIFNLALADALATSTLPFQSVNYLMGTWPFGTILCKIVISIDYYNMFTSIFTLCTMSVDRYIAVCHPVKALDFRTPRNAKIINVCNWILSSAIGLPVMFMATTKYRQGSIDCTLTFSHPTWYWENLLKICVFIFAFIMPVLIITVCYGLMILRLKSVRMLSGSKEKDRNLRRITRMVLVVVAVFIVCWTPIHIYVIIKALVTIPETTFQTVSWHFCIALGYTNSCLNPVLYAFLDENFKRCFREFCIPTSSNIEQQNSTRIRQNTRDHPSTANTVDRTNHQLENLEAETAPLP
Neuropeptide Y receptor type 2 (Homo sapiens), sequence (P49146 whole entry): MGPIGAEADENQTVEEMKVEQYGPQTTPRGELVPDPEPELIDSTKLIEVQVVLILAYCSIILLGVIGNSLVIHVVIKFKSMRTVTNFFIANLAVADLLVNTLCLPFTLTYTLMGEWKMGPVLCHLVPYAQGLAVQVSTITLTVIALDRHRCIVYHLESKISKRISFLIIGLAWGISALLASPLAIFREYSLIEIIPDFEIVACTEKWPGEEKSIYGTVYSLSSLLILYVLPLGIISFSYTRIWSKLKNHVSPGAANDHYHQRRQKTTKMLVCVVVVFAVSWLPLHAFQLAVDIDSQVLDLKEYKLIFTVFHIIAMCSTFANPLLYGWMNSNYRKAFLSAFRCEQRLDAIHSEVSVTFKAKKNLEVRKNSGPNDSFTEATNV

CN1C(=O)CC[C@H]1c1cccnc1 [COTININE] showed an inhibition (Histamine H3 receptor) of less than 50%, an inhibition [1] of less than 50% and an inhibition [2] of less than 50%. It also gave an inhibition [3] of less than 50%, an inhibition [4] of less than 50% and an inhibition (D(3) dopamine receptor) of less than 50%. For the same compound, the inhibition [5] was less than 50%, the inhibition (Homo sapiens [6]) was less than 50% and the inhibition [7] was less than 50%. For the same compound, the inhibition (Homo sapiens [8]) was less than 50%, the inhibition [9] was less than 50% and the inhibition [10] was less than 50%. The inhibition [11] was less than 50%, the inhibition [12] was less than 50% and the inhibition [13] was less than 50%. It also gave an inhibition [14] of less than 50%, an inhibition [15] of less than 50% and an inhibition (Homo sapiens [16]) of less than 50%. For the same compound, the inhibition [17] was less than 50%, the inhibition [18] was less than 50% and the inhibition [19] was less than 50%. The inhibition [20] was less than 50%, the Activity [21] was “>=20%” and the inhibition [22] was less than 50%. For the same compound, the inhibition at 10 µM (hERG (KCNH2)) was less than 50%, the half-life [23] was 19 h and the inhibition (Homo sapiens [24]) was less than 50%.

— ChEMBL document CHEMBL4673260, “Pyridine alkaloids with activity in the central nervous system” (Bioorg Med Chem, 2020)
